Measurements published in patent US7786137B2, “Bicyclic derivatives as modulators of ion channels” (Vertex Pharmaceuticals Incorporated, priority 2005, dated 2010).
Where two headings read alike, the source gives them in different places.

Key:
NaV1.3 [1] = target: T1, NaV1.3 (Homo sapiens, UniProt Q9NY46); details: read-out: TTX IC50; cited from earlier work
Target sequence in this assay (Q9NY46 whole entry, looked up): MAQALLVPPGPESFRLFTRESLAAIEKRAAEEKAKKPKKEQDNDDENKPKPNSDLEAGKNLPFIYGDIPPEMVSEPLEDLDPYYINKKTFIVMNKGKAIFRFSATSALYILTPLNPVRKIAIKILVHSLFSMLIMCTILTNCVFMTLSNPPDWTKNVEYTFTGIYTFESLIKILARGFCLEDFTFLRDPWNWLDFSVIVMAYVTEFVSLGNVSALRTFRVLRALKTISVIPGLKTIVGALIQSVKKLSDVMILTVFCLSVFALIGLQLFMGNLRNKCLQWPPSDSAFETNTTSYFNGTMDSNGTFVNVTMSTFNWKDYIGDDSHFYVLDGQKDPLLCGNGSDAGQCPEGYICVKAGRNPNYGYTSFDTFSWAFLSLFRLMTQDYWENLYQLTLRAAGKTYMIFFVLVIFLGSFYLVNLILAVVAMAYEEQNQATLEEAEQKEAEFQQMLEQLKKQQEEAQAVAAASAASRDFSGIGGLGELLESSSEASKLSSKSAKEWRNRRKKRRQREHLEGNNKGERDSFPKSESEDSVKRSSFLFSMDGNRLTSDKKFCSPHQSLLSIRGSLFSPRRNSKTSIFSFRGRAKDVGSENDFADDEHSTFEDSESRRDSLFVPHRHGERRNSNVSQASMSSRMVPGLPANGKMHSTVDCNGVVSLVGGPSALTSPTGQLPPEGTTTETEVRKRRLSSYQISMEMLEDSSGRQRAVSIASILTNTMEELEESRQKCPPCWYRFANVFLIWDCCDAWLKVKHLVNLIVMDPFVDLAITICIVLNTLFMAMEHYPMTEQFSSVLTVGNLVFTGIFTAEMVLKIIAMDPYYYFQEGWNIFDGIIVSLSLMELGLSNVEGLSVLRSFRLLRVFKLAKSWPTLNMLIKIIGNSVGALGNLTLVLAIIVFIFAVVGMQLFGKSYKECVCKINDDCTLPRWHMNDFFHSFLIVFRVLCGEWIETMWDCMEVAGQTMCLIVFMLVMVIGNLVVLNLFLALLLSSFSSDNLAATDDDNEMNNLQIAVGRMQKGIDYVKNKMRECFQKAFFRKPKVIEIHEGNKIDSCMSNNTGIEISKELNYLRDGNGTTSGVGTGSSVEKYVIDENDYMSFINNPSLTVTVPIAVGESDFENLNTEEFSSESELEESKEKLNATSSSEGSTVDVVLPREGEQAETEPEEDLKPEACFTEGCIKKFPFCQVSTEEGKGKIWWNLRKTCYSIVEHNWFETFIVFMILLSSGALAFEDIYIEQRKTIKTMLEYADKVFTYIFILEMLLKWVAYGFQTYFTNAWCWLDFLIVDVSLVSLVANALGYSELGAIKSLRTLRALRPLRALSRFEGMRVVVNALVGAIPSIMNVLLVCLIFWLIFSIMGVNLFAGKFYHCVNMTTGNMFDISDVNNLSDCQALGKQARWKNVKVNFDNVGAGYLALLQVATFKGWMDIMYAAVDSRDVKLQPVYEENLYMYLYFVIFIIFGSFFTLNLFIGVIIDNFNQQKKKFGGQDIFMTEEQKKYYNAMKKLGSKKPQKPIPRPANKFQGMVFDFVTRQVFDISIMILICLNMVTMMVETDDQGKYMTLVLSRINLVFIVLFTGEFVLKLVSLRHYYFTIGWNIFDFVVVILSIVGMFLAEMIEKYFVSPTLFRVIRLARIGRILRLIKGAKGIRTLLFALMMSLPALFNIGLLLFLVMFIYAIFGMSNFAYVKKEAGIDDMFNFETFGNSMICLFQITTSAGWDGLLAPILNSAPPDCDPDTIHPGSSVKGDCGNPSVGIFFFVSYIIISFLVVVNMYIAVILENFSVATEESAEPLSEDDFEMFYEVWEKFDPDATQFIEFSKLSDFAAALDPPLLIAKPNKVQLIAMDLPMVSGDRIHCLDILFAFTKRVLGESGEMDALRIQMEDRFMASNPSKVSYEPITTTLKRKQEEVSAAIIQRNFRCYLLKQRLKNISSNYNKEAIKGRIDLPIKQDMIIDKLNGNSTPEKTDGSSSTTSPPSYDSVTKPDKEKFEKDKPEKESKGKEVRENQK

NaV1.6 = NaV1.6 (Homo sapiens, UniProt Q9UQD0); details: read-out: TTX IC50; cited from earlier work
NaV1.8 = NaV1.8 (Homo sapiens, UniProt Q9Y5Y9); details: read-out: TTX IC50; cited from earlier work
NaV1.9 = NaV1.9 (Homo sapiens, UniProt Q9UI33); details: read-out: TTX IC50; cited from earlier work
NaV1.1 = NaV1.1 (Homo sapiens, UniProt P35498); details: read-out: TTX IC50; cited from earlier work
NaV1.2 = NaV1.2 (Homo sapiens, UniProt Q99250); details: read-out: TTX IC50; cited from earlier work
[2] = neuropathic pain, modest efficacy; cited from earlier work
NaV1.3 [3] = target: T1, NaV1.3; test: VIPR optical membrane potential assay, NaV1.3 inhibition; format: cell-based; parameters: expressed in transfected cells; host or cells: HEK293; details: activity against NaV 1.3 channel
Target sequence in this assay (Q9NY46 whole entry): as the sequence (Q9NY46 whole entry, looked up) above

Chain of NaV1.2 (Q99250 whole entry, looked up): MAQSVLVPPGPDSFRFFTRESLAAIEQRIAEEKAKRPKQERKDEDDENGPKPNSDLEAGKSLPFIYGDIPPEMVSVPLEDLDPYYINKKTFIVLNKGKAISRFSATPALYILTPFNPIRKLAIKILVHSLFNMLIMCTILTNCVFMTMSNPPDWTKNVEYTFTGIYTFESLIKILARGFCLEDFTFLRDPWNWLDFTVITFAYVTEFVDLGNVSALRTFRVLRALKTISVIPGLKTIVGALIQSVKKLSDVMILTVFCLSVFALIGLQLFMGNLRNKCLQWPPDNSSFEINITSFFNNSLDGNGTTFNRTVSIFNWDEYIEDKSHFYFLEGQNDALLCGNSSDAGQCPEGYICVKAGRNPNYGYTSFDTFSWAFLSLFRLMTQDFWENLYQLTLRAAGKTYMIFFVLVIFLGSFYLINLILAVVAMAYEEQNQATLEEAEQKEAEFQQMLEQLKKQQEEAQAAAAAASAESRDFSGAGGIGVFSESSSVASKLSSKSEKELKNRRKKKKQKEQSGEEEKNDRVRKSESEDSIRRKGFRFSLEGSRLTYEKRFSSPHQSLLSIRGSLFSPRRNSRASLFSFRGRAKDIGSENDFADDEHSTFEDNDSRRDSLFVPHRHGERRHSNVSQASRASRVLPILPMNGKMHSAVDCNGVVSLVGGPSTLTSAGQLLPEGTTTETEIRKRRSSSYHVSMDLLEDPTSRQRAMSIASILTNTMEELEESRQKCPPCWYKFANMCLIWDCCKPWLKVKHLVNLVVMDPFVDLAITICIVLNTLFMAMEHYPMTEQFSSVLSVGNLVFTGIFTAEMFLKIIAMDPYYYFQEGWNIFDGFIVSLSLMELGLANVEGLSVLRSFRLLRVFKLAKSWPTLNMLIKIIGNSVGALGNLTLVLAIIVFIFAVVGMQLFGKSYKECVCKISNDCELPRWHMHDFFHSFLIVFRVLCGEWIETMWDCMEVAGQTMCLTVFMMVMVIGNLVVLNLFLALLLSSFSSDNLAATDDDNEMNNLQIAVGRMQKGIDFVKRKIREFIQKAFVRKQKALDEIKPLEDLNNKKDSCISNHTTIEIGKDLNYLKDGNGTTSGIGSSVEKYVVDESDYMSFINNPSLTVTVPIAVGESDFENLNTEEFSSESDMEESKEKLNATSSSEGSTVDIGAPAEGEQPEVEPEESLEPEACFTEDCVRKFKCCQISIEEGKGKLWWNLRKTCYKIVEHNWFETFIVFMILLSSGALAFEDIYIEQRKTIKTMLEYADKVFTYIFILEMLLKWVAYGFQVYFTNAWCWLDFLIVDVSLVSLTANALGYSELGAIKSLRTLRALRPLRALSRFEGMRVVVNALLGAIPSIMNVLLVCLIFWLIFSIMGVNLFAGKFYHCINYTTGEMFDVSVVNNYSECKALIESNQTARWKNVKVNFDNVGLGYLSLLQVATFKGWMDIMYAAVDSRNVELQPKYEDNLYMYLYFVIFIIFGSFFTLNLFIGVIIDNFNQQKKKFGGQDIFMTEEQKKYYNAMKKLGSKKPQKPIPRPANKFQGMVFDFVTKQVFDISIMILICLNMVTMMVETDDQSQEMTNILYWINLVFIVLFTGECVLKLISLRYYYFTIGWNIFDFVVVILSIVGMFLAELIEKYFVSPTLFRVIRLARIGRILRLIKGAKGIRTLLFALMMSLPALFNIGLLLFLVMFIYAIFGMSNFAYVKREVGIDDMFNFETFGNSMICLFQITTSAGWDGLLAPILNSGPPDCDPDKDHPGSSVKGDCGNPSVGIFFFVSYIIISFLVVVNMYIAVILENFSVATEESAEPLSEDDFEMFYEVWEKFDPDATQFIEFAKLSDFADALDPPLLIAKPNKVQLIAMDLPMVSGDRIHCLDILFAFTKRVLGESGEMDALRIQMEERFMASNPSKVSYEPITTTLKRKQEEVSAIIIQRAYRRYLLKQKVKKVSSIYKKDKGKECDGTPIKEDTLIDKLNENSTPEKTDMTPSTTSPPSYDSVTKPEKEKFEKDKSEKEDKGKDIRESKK

Compound	IC50 (NaV1.3 [3])	also measured
NC1=N[C@H](O)[C@H]2[C@H]3O[C@]4(O)O[C@@H]([C@@H](O)[C@@]2(N1)[C@@H]4O)[C@]3(O)CO [TTX, tetrodotoxin]		IC50 (NaV1.3 [1]): 0.015 µM; IC50 (NaV1.6): 0.006 µM; IC50 (NaV1.8): > 50 µM; IC50 (NaV1.9): 1 µM; IC50 (NaV1.1): 0.01 µM; IC50 (NaV1.2): 0.01 µM
NCC1(CC(=O)O)CCCCC1 [Gabapentin]		patients in whom it works [2]: 60%
O=C(c1ccccc1C(F)(F)F)n1ccc2cc(S(=O)(=O)Nc3nccs3)ccc21 [Compound 176]	2 to 5 µM	
O=C(COc1ccccc1)N1CCCc2cc(S(=O)(=O)Nc3nccs3)ccc21 [Compound 113]	2 to 5 µM	
CN(CC(=O)N1CCc2cc(S(=O)(=O)Nc3nccs3)ccc21)c1ccncc1 [Compound 29]	> 5 µM	
CC(Oc1ccccc1Cl)C(=O)N1CCc2cc(S(=O)(=O)Nc3nccs3)ccc21 (stereo not drawn) [Compound 148]	< 2 µM	
O=C(COc1ccc(F)c(Cl)c1)N1Cc2ccc(S(=O)(=O)Nc3nccs3)cc2C1 [Compound 27]	< 2 µM	
CC(Oc1cccc(Cl)c1)C(=O)N1CCc2cc(S(=O)(=O)Nc3nccs3)ccc21 (stereo not drawn) [Compound 91]	< 2 µM	
O=S(=O)(Nc1nccs1)c1ccc2c(c1)CCN2CCNc1nc2ccccc2s1 [Compound 157]	> 5 µM	
O=C(Oc1cccc(C(F)(F)F)c1)N1CCc2cc(S(=O)(=O)Nc3nccs3)ccc21 [Compound 106]	2 to 5 µM	
O=C(Oc1ccc(Cl)cc1)N1CCc2cc(S(=O)(=O)Nc3nccs3)ccc21 [Compound 117]	> 5 µM	
O=C(c1cccc(Cl)c1)N1CCc2cc(S(=O)(=O)Nc3nccs3)ccc21 [Compound 50]	< 2 µM	
C[C@@H](C(=O)N1CCc2cc(S(=O)(=O)Nc3ncns3)ccc21)n1ccc2c(F)cccc21 [Compound 142]	< 2 µM	
Cc1ccccc1OCC(=O)N1CCc2cc(S(=O)(=O)Nc3nccs3)ccc21 [Compound 134]	< 2 µM	
C[C@H](C(=O)N1CCc2cc(S(=O)(=O)Nc3ncns3)ccc21)n1ccc2c(F)cccc21 [Compound 93]	< 2 µM	
Cc1ccc(CNCC(=O)N2CCc3cc(S(=O)(=O)Nc4nccs4)ccc32)cc1 [Compound 41]	2 to 5 µM	
COc1cccc(CCC(=O)N2CCc3cc(S(=O)(=O)Nc4nccs4)ccc32)c1 [Compound 192]	< 2 µM	
O=C(CNc1ccc(C(F)(F)F)cc1)N1CCc2cc(S(=O)(=O)Nc3nccs3)ccc21 [Compound 68]	2 to 5 µM	
O=C(c1ccc(C(F)(F)F)cc1)N1CCCc2cc(S(=O)(=O)Nc3nccs3)ccc21 [Compound 132]	2 to 5 µM	
